In PubChem BioAssay AID330 (DTP/NCI, 2004):
Several values for one entry are separate records, joined by “and”; a condition that tells them apart may be missing. Equal values may be shown once. Inconclusive results and toxic doses are left out.

Tested on: P388 leukemia ip, CD2F1 mice, survival T/C
Assay: NCI In Vivo Anticancer Drug Screen. Data for tumor model P388 Leukemia (intraperitoneal) in CD2F1 (CDF1) mice
Details: endpoint: median survival time, higher = longer survival
Outline: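 Mice carrying the transplanted tumor received test compound or vehicle. Survival was recorded in each group, and the value is the treated-group measurement divided by that of the vehicle-treated control group.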

[1] = dose: 60.0 mg/kg/injection, schedule: Q01DX005 (ip), vehicle: saline with Tween-80
[2] = dose: 100.0 mg/kg/injection, schedule: Q04DX003 (ip), vehicle: Klucel (hydroxypropylcellulose) (HPC)
[3] = dose: 200.0 mg/kg/injection, schedule: Q04DX003 (ip), vehicle: Klucel (hydroxypropylcellulose) (HPC)
[4] = dose: 400.0 mg/kg/injection, schedule: Q04DX003 (ip), vehicle: Klucel (hydroxypropylcellulose) (HPC)
[5] = dose: 120.0 mg/kg/injection, schedule: Q01DX005 (ip), vehicle: saline with Tween-80
[6] = dose: 50.0 mg/kg/injection, schedule: Q01DX009 (ip), vehicle: saline with Tween-80
[7] = dose: 100.0 mg/kg/injection, schedule: Q01DX009 (ip), vehicle: saline with Tween-80
[8] = dose: 200.0 mg/kg/injection, schedule: Q01DX009 (ip), vehicle: saline with Tween-80
[9] = dose: 25.0 mg/kg/injection, schedule: Q01DX009 (ip), vehicle: saline
[10] = dose: 50.0 mg/kg/injection, schedule: Q01DX009 (ip), vehicle: saline
[11] = dose: 100.0 mg/kg/injection, schedule: Q01DX009 (ip), vehicle: saline
[12] = dose: 50.0 mg/kg/injection, schedule: Q01DX005 (ip), vehicle: Klucel (hydroxypropylcellulose) (HPC)
[13] = dose: 100.0 mg/kg/injection, schedule: Q01DX005 (ip), vehicle: Klucel (hydroxypropylcellulose) (HPC)
[14] = dose: 200.0 mg/kg/injection, schedule: Q01DX005 (ip), vehicle: Klucel (hydroxypropylcellulose) (HPC)

## CN1Cc2[nH]c3c(c2C(O)C1)C(=O)CC(C)(C)C3 (stereo unspecified)
dose: 50.0 mg/kg/injection, schedule: Q04DX002 (ip), vehicle: saline
  T/C: 94 % of control
dose: 100.0 mg/kg/injection, schedule: Q04DX002 (ip), vehicle: saline
  T/C: 103 % of control
dose: 200.0 mg/kg/injection, schedule: Q04DX002 (ip), vehicle: saline
  T/C: 101 % of control

## Clc1cccc(NCNC2Nc3ccccc3N2)c1
dose: 15.0 mg/kg/injection, schedule: Q01DX005 (ip), vehicle: saline with Tween-80
  T/C: 96 % of control
dose: 30.0 mg/kg/injection, schedule: Q01DX005 (ip), vehicle: saline with Tween-80
  T/C: 97 % of control
[1]
  T/C: 93 % of control

## CCOC(=O)/N=[N+](\[O-])c1cccc(Br)c1
dose: 100.0 mg/kg/injection, schedule: Q01DX001 (ip), vehicle: Klucel (hydroxypropylcellulose) (HPC)
  T/C: 101 % of control

## O=P(O)(O)SP(=O)(O)O.[Mn]
[2]
  T/C: 105 % of control
[3]
  T/C: 110 % of control
[4]
  T/C: 119 % of control

## COc1ccc(/C=N\O)cc1OC
dose: 100.0 mg/kg/injection, schedule: Q04DX003 (ip), vehicle: saline with Tween-80
  T/C: 100 % of control
dose: 200.0 mg/kg/injection, schedule: Q04DX003 (ip), vehicle: saline with Tween-80
  T/C: 100 % of control
dose: 400.0 mg/kg/injection, schedule: Q04DX003 (ip), vehicle: saline with Tween-80
  T/C: 100 % of control

## CCOC(=O)C1=C(C(=O)c2ccc(C)cc2)C(c2ccc([N+](=O)[O-])cc2)C(C(=O)c2ccc(C)cc2)=C(C(=O)OCC)N1
[1]
  T/C: 90 % of control
[5]
  T/C: 90 % of control

## CN(C)C(=O)COC(C(=O)N(C)C)C(OCC(=O)N(C)C)C(=O)N(C)C (stereo unspecified)
dose: 50.0 mg/kg/injection, schedule: Q01DX005 (ip), vehicle: saline
  T/C: 97 % of control
dose: 100.0 mg/kg/injection, schedule: Q01DX005 (ip), vehicle: saline
  T/C: 95 % of control
dose: 200.0 mg/kg/injection, schedule: Q01DX005 (ip), vehicle: saline
  T/C: 92 % of control

## OCC1OC(n2cnc3cc(Cl)c(Cl)cc32)C(O)C1O (stereo unspecified)
dose: 8.0 mg/kg/injection, schedule: Q03HX024 (ip), vehicle: saline with Tween-80
  T/C: 96 % of control
dose: 16.0 mg/kg/injection, schedule: Q03HX024 (ip), vehicle: saline with Tween-80
  T/C: 99 % of control
dose: 20.0 mg/kg/injection, schedule: Q04DX003 (ip), vehicle: other
  T/C: 95 % of control
dose: 20.0 mg/kg/injection, schedule: Q04DX003 (oral), vehicle: other
  T/C: 103 % of control
dose: 25.0 mg/kg/injection, schedule: Q01DX009 (ip), vehicle: saline with Tween-80
  T/C: 93 % of control
dose: 32.0 mg/kg/injection, schedule: Q03HX024 (ip), vehicle: saline with Tween-80
  T/C: 114 % of control and 116 % of control
dose: 40.0 mg/kg/injection, schedule: Q04DX003 (ip), vehicle: other
  T/C: 100 % of control
dose: 40.0 mg/kg/injection, schedule: Q04DX003 (oral), vehicle: other
  T/C: 100 % of control
[6]
  T/C: 106 % of control
dose: 80.0 mg/kg/injection, schedule: Q04DX003 (ip), vehicle: other
  T/C: 95 % of control
dose: 80.0 mg/kg/injection, schedule: Q04DX003 (oral), vehicle: other
  T/C: 103 % of control
[7]
  T/C: 123 % of control
dose: 160.0 mg/kg/injection, schedule: Q04DX003 (ip), vehicle: other
  T/C: 110 % of control
dose: 160.0 mg/kg/injection, schedule: Q04DX003 (oral), vehicle: other
  T/C: 100 % of control
[8]
  T/C: 160 % of control
dose: 320.0 mg/kg/injection, schedule: Q04DX003 (ip), vehicle: other
  T/C: 119 % of control
dose: 320.0 mg/kg/injection, schedule: Q04DX003 (oral), vehicle: other
  T/C: 107 % of control
dose: 640.0 mg/kg/injection, schedule: Q04DX003 (oral), vehicle: other
  T/C: 100 % of control

## O=C(OCN1C(=O)C2C3C=CC(C2C1=O)C1C2C(=O)N(COC(=O)C4CCCN4)C(=O)C2C31)C1CCCN1 (stereo unspecified)
[9]
  T/C: 105 % of control and 108 % of control
[10]
  T/C: 108 % of control
[11]
  T/C: 162 % of control and 205 % of control

## Cc1cc[n+](C)c2ccccc12
dose: 9.37 mg/kg/injection, schedule: Q01DX009 (ip), vehicle: saline with Tween-80
  T/C: 109 % of control
dose: 18.75 mg/kg/injection, schedule: Q01DX009 (ip), vehicle: saline with Tween-80
  T/C: 100 % of control
dose: 37.5 mg/kg/injection, schedule: Q01DX009 (ip), vehicle: saline with Tween-80
  T/C: 104 % of control

## c1cnc2nc3c4ccccc4c4ccccc4c3nc2c1
[6]
  T/C: 104 % of control and 94 % of control
[7]
  T/C: 104 % of control and 122 % of control and 93 % of control
[8]
  T/C: 101 % of control and 110 % of control and 86 % of control

## O=C(O)c1c[nH]c2cc(OCCOc3ccc4ccccc4c3)ccc2c1=O
dose: 100.0 mg/kg/injection, schedule: Q04DX003 (ip), vehicle: saline
  T/C: 99 % of control
dose: 200.0 mg/kg/injection, schedule: Q04DX003 (ip), vehicle: saline
  T/C: 88 % of control
dose: 400.0 mg/kg/injection, schedule: Q04DX003 (ip), vehicle: saline
  T/C: 94 % of control

## NC(=O)c1sc2ncccc2c1N
[1]
  T/C: 96 % of control
[5]
  T/C: 92 % of control
dose: 240.0 mg/kg/injection, schedule: Q01DX005 (ip), vehicle: saline with Tween-80
  T/C: 96 % of control

## C[P+]1(C)CCc2c1ccc1ccccc21
[6]
  T/C: 102 % of control

## Nc1n[nH]c2c3c([nH]c(=O)c12)-c1ccccc1SC3
dose: 100.0 mg/kg/injection, schedule: Q04DX002 (ip), vehicle: Klucel (hydroxypropylcellulose) (HPC)
  T/C: 102 % of control
dose: 200.0 mg/kg/injection, schedule: Q04DX002 (ip), vehicle: Klucel (hydroxypropylcellulose) (HPC)
  T/C: 88 % of control
dose: 400.0 mg/kg/injection, schedule: Q04DX002 (ip), vehicle: Klucel (hydroxypropylcellulose) (HPC)
  T/C: 86 % of control

## CCN(C)N=Nc1cccnc1
dose: 12.5 mg/kg/injection, schedule: Q01DX009 (ip), vehicle: saline
  T/C: 103 % of control and 92 % of control and 97 % of control
[9]
  T/C: 100 % of control and 102 % of control and 92 % of control
[10]
  T/C: 103 % of control and 111 % of control and 91 % of control
[11]
  T/C: 107 % of control and 110 % of control

## CC(C)(OC(=O)N=[N+]=[N-])c1ccc(N=Nc2ccccc2)cc1
dose: 50.0 mg/kg/injection, schedule: Q01DX009 (ip), vehicle: saline + alcohol
  T/C: 94 % of control
dose: 100.0 mg/kg/injection, schedule: Q01DX009 (ip), vehicle: saline + alcohol
  T/C: 98 % of control
dose: 200.0 mg/kg/injection, schedule: Q01DX009 (ip), vehicle: saline + alcohol
  T/C: 87 % of control

## COc1cc2c(cc1-c1coc3cc(O)ccc3c1=O)OCO2
dose: 1.1 mg/kg/injection, schedule: Q01DX005 (ip), vehicle: Klucel (hydroxypropylcellulose) (HPC)
  T/C: 90 % of control
dose: 2.13 mg/kg/injection, schedule: Q01DX005 (ip), vehicle: Klucel (hydroxypropylcellulose) (HPC)
  T/C: 86 % of control
dose: 4.25 mg/kg/injection, schedule: Q01DX005 (ip), vehicle: Klucel (hydroxypropylcellulose) (HPC)
  T/C: 92 % of control and 96 % of control
dose: 8.5 mg/kg/injection, schedule: Q01DX005 (ip), vehicle: Klucel (hydroxypropylcellulose) (HPC)
  T/C: 88 % of control and 94 % of control
dose: 68.0 mg/kg/injection, schedule: Q01DX005 (ip), vehicle: Klucel (hydroxypropylcellulose) (HPC)
  T/C: 86 % of control

## CN1CCN(C(=O)CCSc2nc(-c3ccccc3)c(-c3ccccc3)o2)CC1
[10]
  T/C: 110 % of control
[11]
  T/C: 110 % of control

## COC(=O)CC1C(C)=CCC2C(=O)C=C(OC)C(=O)C21C (stereo unspecified)
[12]
  T/C: 101 % of control
[13]
  T/C: 101 % of control
[14]
  T/C: 100 % of control

## O=C1NC(=O)C2(CCCc3ccc(N(CCO)CCO)cc32)N1 (stereo unspecified)
dose: 50.0 mg/kg/injection, schedule: Q01DX009 (ip), vehicle: DMSO
  T/C: 106 % of control
dose: 100.0 mg/kg/injection, schedule: Q01DX009 (ip), vehicle: DMSO
  T/C: 103 % of control
dose: 200.0 mg/kg/injection, schedule: Q01DX009 (ip), vehicle: DMSO
  T/C: 106 % of control

## CC1(C)C(=O)C(C)(C)C1O[Si](C)(C)OC1C(C)(C)C(=O)C1(C)C
[2]
  T/C: 102 % of control
[3]
  T/C: 101 % of control
[4]
  T/C: 93 % of control

## CCOC(=O)c1c(Cl)c(CC)c(N=[N+]=[N-])n2c1nc1ccccc12
[1]
  T/C: 101 % of control
[5]
  T/C: 101 % of control

## O=S(=O)(OI(O)c1ccccc1)c1ccccc1
dose: 12.5 mg/kg/injection, schedule: Q01DX009 (ip), vehicle: water
  T/C: 98 % of control
dose: 25.0 mg/kg/injection, schedule: Q01DX009 (ip), vehicle: water
  T/C: 116 % of control
dose: 50.0 mg/kg/injection, schedule: Q01DX009 (ip), vehicle: water
  T/C: 105 % of control and 113 % of control

## c1ccc2c(c1)ccc1c3ccccc3sc21
[12]
  T/C: 101 % of control
[13]
  T/C: 110 % of control
[14]
  T/C: 103 % of control
